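These data come from cells grown in 96-well plates and exposed to compound for 48 hours at five concentrations. GI50: concentration for 50% inhibition of growth. The concentration for full growth arrest is given as TGI.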
Experiments:
Experiment in all cases: growth of human tumour cells (NCI), 48 h
[1] = tested on: RXF 393 renal
[2] = tested on: SK-MEL-5 melanoma
[3] = tested on: A549 NSCLC
[4] = tested on: M14 melanoma
[5] = tested on: SW-620 colon
[6] = tested on: SK-MEL-2 melanoma
[7] = tested on: NCI-H522 lung
[8] = tested on: A498 renal
[9] = tested on: HOP-92 NSCLC
[10] = tested on: MALME-3M melanoma
[11] = tested on: HCT-15 colon
[12] = tested on: BT-549 breast
[13] = tested on: UACC-257 melanoma
[14] = tested on: SNB-19 CNS
[15] = tested on: NCI/ADR-RES ovarian
[16] = tested on: CAKI-1 renal
[17] = tested on: SF-268 CNS
[18] = tested on: COLO 205 colon
[19] = tested on: SK-MEL-28 melanoma
[20] = tested on: SN12C renal
[21] = tested on: KM12 colon
[22] = tested on: UACC-62 melanoma
[23] = tested on: K-562 leukemia
[24] = tested on: PC-3 prostate
[25] = tested on: HCC-2998 colon
[26] = tested on: T-47D breast
[27] = tested on: SK-OV-3 ovarian
[28] = tested on: OVCAR-8 ovarian
[29] = tested on: ACHN renal
[30] = tested on: UO-31 renal
[31] = tested on: 786-0 renal
[32] = tested on: OVCAR-4 ovarian
[33] = tested on: NCI-H226 lung
[34] = tested on: LOX IMVI melanoma
[35] = tested on: OVCAR-5 ovarian
[36] = tested on: TK-10 renal
[37] = tested on: HS 578T breast
[38] = tested on: MDA-MB-231 breast
[39] = tested on: SF-539 CNS
[40] = tested on: EKVX NSCLC
[41] = tested on: RPMI-8226 leukemia
[42] = tested on: NCI-H460 lung
[43] = tested on: IGROV1 ovarian
[44] = tested on: HL-60(TB) leukemia
[45] = tested on: DU-145 prostate
[46] = tested on: NCI-H23 lung
[47] = tested on: MDA-MB-435
[48] = tested on: HT29 colon
[49] = tested on: MCF7 breast
[50] = tested on: MOLT-4 leukemia
[51] = tested on: OVCAR-3 ovarian
[52] = tested on: HOP-62 NSCLC
[53] = tested on: U251 CNS
[54] = tested on: HCT-116 colon
[55] = tested on: CCRF-CEM leukemia
[56] = tested on: SF-295 CNS
[57] = tested on: SR leukemia
[58] = tested on: SNB-75 CNS

## Cn1cc(-c2nnc(N)nc2-c2c[nH]c3ccc(F)cc23)c2cc(Br)ccc21
[1]
  GI50: 1.38 µM
  TGI: 3.88 µM
[2]
  GI50: 1.15 µM
  TGI: 2.71 µM
[3]
  GI50: 2.11 µM
  TGI: 46.7 µM
[4]
  GI50: 1.3 µM
  TGI: 12.3 µM
[5]
  GI50: 0.658 µM
  TGI: 14.2 µM
[6]
  GI50: 2.06 µM
  TGI: 10.5 µM
[7]
  GI50: 0.933 µM
  TGI: 8.28 µM
[8]
  GI50: 1.54 µM
  TGI: 4.84 µM
[9]
  GI50: 1.7 µM
  TGI: 13.1 µM
[10]
  GI50: 1.32 µM
  TGI: 16.6 µM
[11]
  GI50: 0.591 µM
  TGI: 13.1 µM
[12]
  GI50: 2.67 µM
  TGI: 17.6 µM
[13]
  GI50: 4.71 µM
  TGI: 19.3 µM
[14]
  GI50: 2.56 µM
  TGI: 14.8 µM
[15]
  GI50: 2.25 µM
  TGI: 22.9 µM
[16]
  GI50: 0.668 µM
  TGI: 12.5 µM
[17]
  GI50: 2.73 µM
  TGI: 20.1 µM
[18]
  GI50: 0.64 µM
  TGI: 3.94 µM
[19]
  GI50: 2.98 µM
  TGI: 17.6 µM
[20]
  GI50: 3.12 µM
  TGI: 17.4 µM
[21]
  GI50: 0.875 µM
  TGI: 14.6 µM
[22]
  GI50: 0.65 µM
  TGI: 12.6 µM
[23]
  GI50: 0.453 µM
  TGI: > 100 µM
[24]
  GI50: 0.991 µM
  TGI: 20.6 µM
[25]
  GI50: 2.99 µM
  TGI: 12.5 µM
[26]
  GI50: 1.91 µM
  TGI: 19.9 µM
[27]
  GI50: 2.53 µM
  TGI: 15.1 µM
[28]
  GI50: 2.98 µM
  TGI: 20.7 µM
[29]
  GI50: 2.8 µM
  TGI: 13.6 µM
[30]
  GI50: 1.76 µM
  TGI: 13.9 µM
[31]
  GI50: 3.79 µM
  TGI: 22.4 µM
[32]
  GI50: 2.91 µM
  TGI: 13.1 µM
[33]
  GI50: 3.06 µM
  TGI: 24.4 µM
[34]
  GI50: 1.19 µM
  TGI: 14 µM
[35]
  GI50: 3.15 µM
  TGI: 16.7 µM
[36]
  GI50: 5.18 µM
  TGI: 38.9 µM
[37]
  GI50: 2.04 µM
  TGI: 8.17 µM
[38]
  GI50: 2.3 µM
  TGI: 16.7 µM
[39]
  GI50: 1.88 µM
  TGI: 8.7 µM
[40]
  GI50: 3.02 µM
  TGI: 15.8 µM
[41]
  GI50: 2.29 µM
  TGI: 43.4 µM
[42]
  GI50: 0.611 µM
  TGI: 10.8 µM
[43]
  GI50: 0.881 µM
  TGI: 12.7 µM
[44]
  GI50: 0.707 µM
  TGI: > 100 µM
[45]
  GI50: 2.91 µM
  TGI: 26.9 µM
[46]
  GI50: 2.08 µM
  TGI: 10.4 µM
[47]
  GI50: 0.28 µM
  TGI: 0.829 µM
[48]
  GI50: 0.458 µM
  TGI: 10.8 µM
[49]
  GI50: 0.7 µM
  TGI: 11.2 µM
[50]
  GI50: 1.38 µM
  TGI: > 100 µM
[51]
  GI50: 1.15 µM
  TGI: 9.57 µM
[52]
  GI50: 1.64 µM
  TGI: 14.6 µM
[53]
  GI50: 2.43 µM
  TGI: 14.3 µM
[54]
  GI50: 1.08 µM
  TGI: 11.1 µM
[55]
  GI50: 2.29 µM
  TGI: > 100 µM
[56]
  GI50: 0.792 µM
  TGI: 5.08 µM
[57]
  GI50: 0.671 µM
  TGI: > 100 µM

## Cc1cc2nc3c4cc(Cl)ccc4n(CC(=O)NCCN(C)C)c3nc2cc1C
[1]
  GI50: 1.67 µM
  TGI: 3.42 µM
[2]
  GI50: 1.77 µM
  TGI: 3.37 µM
[3]
  GI50: 2.02 µM
  TGI: 5.02 µM
[4]
  GI50: 1.64 µM
  TGI: 3.11 µM
[5]
  GI50: 1.57 µM
  TGI: 3.21 µM
[6]
  GI50: 16 µM
  TGI: 29.8 µM
[7]
  GI50: 12.7 µM
  TGI: 25.9 µM
[8]
  GI50: 18 µM
  TGI: 31.8 µM
[9]
  GI50: 2.2 µM
  TGI: 22.8 µM
[10]
  GI50: 1.69 µM
  TGI: 3.2 µM
[11]
  GI50: 1.86 µM
  TGI: 4.01 µM
[12]
  GI50: 13.6 µM
  TGI: 26.8 µM
[13]
  GI50: 1.87 µM
  TGI: 3.97 µM
[14]
  GI50: 16.1 µM
  TGI: 31.2 µM
[15]
  GI50: 5.64 µM
  TGI: 18.5 µM
[16]
  GI50: 3.46 µM
  TGI: 18.1 µM
[17]
  GI50: 13.9 µM
  TGI: 30.5 µM
[18]
  GI50: 75.6 µM
  TGI: > 100 µM
[19]
  GI50: 1.74 µM
  TGI: 3.15 µM
[20]
  GI50: 15.2 µM
  TGI: 29.4 µM
[21]
  GI50: > 100 µM
  TGI: > 100 µM
[22]
  GI50: 2.14 µM
  TGI: 5.26 µM
[23]
  GI50: 2.28 µM
  TGI: 7.36 µM
[24]
  GI50: 11.1 µM
  TGI: 71.7 µM
[25]
  GI50: 11.7 µM
  TGI: 23.9 µM
[26]
  GI50: > 100 µM
  TGI: > 100 µM
[27]
  GI50: 14.3 µM
  TGI: 29.1 µM
[28]
  GI50: 1.91 µM
  TGI: 3.87 µM
[29]
  GI50: 1.5 µM
  TGI: 2.82 µM
[30]
  GI50: 1.02 µM
  TGI: 2.22 µM
[31]
  GI50: 1.57 µM
  TGI: 3.1 µM
[32]
  GI50: 15.9 µM
  TGI: 39.2 µM
[33]
  GI50: 9.43 µM
  TGI: 26.1 µM
[34]
  GI50: 1.19 µM
  TGI: 2.49 µM
[35]
  GI50: 2.04 µM
  TGI: 4.68 µM
[36]
  GI50: 19.7 µM
  TGI: 33.9 µM
[58]
  GI50: 13.2 µM
  TGI: 26.5 µM
[37]
  GI50: 13.5 µM
  TGI: 35.5 µM
[38]
  GI50: 2.25 µM
  TGI: 6.58 µM
[39]
  GI50: 1.74 µM
  TGI: 3.21 µM
[40]
  GI50: 10.6 µM
  TGI: 23.3 µM
[42]
  GI50: 1.79 µM
  TGI: 3.62 µM
[43]
  GI50: 12.7 µM
  TGI: 26.5 µM
[44]
  GI50: 1.91 µM
  TGI: 4.57 µM
[45]
  GI50: 13.7 µM
  TGI: 26.6 µM
[47]
  GI50: 1.9 µM
  TGI: 3.77 µM
[48]
  GI50: 1.67 µM
  TGI: 3.18 µM
[49]
  GI50: 1.48 µM
  TGI: 3.15 µM
[50]
  GI50: 2.2 µM
  TGI: 6.18 µM
[51]
  GI50: 14.6 µM
  TGI: 27.8 µM
[52]
  GI50: 11.5 µM
  TGI: 26.4 µM
[53]
  GI50: 1.66 µM
  TGI: 3.1 µM
[54]
  GI50: 1.73 µM
  TGI: 3.29 µM
[56]
  GI50: 16.4 µM
  TGI: 29.9 µM
[57]
  GI50: 2.42 µM
  TGI: 6.64 µM

Reference: PubChem BioAssay (NCI)
